Test results taken from patent publication EP4609848A1 (I-D Actives, S.L., priority 2024, dated 2025).
Values after ≈ are worked out from the molar mass of the structure shown.

Assay: Phase solubility study with cyclodextrins (β-CDs, HP-β-CDs) in galega water, spectrophotometric titration
Assay type: physicochemical
Method: The inventors performed solubility studies in an aqueous media in the absence and presence of solvents and in the presence of increasing concentrations of different types of CDs (β-CDs and HP-β-CDs).
According to the traditional interpretation, this study was carried out using the solubility method.
On the other hand, further sea buckthorn oil solubilization tests were performed with galega water solutions containing 80 mM HP-β-cyclodextrin and another solution with 10 mM β-cyclodextrin.

## Oc1ccc(C=Cc2cc(O)cc(O)c2)cc1 [Resveratrol, resveratrol]
25 °C, water, thermodynamic from solid
  solubility thermodynamic at 60 min: 40 µg/mL (≈ 175 µM)
In absence of CDs, galega water
  solubility of resveratrol: 0.025 mg/mL
